From the NIST ThermoML archive (doi:10.1016/j.jct.2007.01.012)
± gives the expanded uncertainty stated by the source.

Details: 101.33 kPa, Liquid

| mass density (298.15 K) [kg/m3] | mass density (303.15 K) [kg/m3] | mass density (313.15 K) [kg/m3] | Compound |
| --- | --- | --- | --- |
| 1236.5 ± 2.9 | 1232.6 ± 2.9 | 1225.6 ± 2.8 | CCn1cc[n+](C)c1.COCCOCCOS(=O)(=O)[O-] [1-ethyl-3-methylimidazolium 2-(2-methoxyethoxy) ethylsulfate] |
| 786.7 ± 1.4 | 782 ± 1.4 | 772.7 ± 1.4 | CO [methanol] |
